Assay [1] has as its target Glyceraldehyde-3-phosphate dehydrogenase (Homo sapiens, UniProt P04406).
Assay [2] concerns the target Heat shock 70 kDa protein 1A (Homo sapiens, UniProt P0DMV8). Briefly: Hsp70 inhibitors, SAR follow-up, biochemical, fluorescence polarization (AID 1072).
In assay [3] the target is Heat shock cognate 71 kDa protein (Homo sapiens, UniProt P11142). Briefly: In Vitro Hsc70 Dose Response Fluorescence Polarization Assay. [Related pubchem assays: 1072 ].
Assay [4] concerns the target T1, Tyrosine-protein phosphatase non-receptor type 7 (Homo sapiens, UniProt P35236).
T1 sequence (P35236 whole entry): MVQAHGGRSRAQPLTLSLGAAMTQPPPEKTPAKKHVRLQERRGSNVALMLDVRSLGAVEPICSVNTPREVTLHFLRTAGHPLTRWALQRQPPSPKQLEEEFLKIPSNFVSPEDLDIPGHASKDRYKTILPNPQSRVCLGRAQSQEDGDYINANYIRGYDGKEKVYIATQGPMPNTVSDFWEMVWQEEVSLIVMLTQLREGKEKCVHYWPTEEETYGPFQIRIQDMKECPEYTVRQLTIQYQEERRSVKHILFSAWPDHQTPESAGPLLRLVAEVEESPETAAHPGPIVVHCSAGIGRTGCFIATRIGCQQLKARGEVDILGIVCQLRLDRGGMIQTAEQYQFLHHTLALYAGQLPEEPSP
Format: functional.

Assay [5] has as its target T2, Dual specificity protein phosphatase 6 (Rattus norvegicus, UniProt Q64346).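 Also: in vitro confirmatory secondary MKP-3 assay designed to detect irreversible or slow-binding inhibitors; recombinant His-tagged rat MKP-3 acting on the substrate OMFP; inhibitor potency from reduced phosphatase rate.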
T2 sequence (Q64346 whole entry): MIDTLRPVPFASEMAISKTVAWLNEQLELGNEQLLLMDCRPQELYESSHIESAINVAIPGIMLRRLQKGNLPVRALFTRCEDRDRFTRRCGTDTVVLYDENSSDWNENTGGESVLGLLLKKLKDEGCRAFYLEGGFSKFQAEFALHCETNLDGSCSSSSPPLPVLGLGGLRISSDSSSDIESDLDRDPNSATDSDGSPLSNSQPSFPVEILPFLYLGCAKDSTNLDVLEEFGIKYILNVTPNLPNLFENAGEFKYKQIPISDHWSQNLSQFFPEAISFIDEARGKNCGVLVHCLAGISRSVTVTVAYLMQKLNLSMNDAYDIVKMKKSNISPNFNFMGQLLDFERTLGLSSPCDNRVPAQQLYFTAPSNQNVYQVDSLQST

The nature of assay [6]: inhibitors of SNCA 5'UTR-driven reporter translation, confirmation, H4 neuroglioma cells, luminescence (AID 1988). The assay is classed as functional, cell-based.
Assay [7] can be described thus: inhibitors of firefly luciferase expression or activity, dose response, H4 neuroglioma cells, luminescence (AID 1990). The assay is classed as functional, cell-based.
A short description of another assay: cells. Format: functional, cell-based.
Assay [8] can be described thus: inhibitors of SNCA 5'UTR-driven translation, confirmation, luminescence, H4 neuroglioblastoma cells, dose confirmation (AID 2454).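 Also: H4 neuroglioblastoma cells carrying an alpha-synuclein 5'UTR luciferase reporter; potency for inhibition of the luciferase signal.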 The assay is classed as functional, cell-based.
Assay [9] is described as follows: luciferase reporter signal reduction – luminescence, H4-C neuroglioblastoma cells, dose response (AID 2458).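 Also: H4 neuroglioblastoma cells stably carrying a luciferase reporter gene fusion.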 The assay is classed as functional, cell-based.
For assay [10], the target named is Potassium voltage-gated channel subfamily KQT member 2 (Rattus norvegicus, UniProt O88943). Briefly: Mode of action assay - current amplitude concentration response for derivatives of ZTZ240, a potentiator of KCNQ2 potassium channels. [Related pubchem assays: 2258 (Summary assay for the KCNQ2 potentiators.), 2239 (Primary HTS assay for KCNQ2 potentiators with 305606 compounds tested, and 1644 are found to be active.)]. Format: functional.

The target of the next assay is T3, Estrogen receptor (Homo sapiens, UniProt P03372).
T3 sequence (P03372 whole entry): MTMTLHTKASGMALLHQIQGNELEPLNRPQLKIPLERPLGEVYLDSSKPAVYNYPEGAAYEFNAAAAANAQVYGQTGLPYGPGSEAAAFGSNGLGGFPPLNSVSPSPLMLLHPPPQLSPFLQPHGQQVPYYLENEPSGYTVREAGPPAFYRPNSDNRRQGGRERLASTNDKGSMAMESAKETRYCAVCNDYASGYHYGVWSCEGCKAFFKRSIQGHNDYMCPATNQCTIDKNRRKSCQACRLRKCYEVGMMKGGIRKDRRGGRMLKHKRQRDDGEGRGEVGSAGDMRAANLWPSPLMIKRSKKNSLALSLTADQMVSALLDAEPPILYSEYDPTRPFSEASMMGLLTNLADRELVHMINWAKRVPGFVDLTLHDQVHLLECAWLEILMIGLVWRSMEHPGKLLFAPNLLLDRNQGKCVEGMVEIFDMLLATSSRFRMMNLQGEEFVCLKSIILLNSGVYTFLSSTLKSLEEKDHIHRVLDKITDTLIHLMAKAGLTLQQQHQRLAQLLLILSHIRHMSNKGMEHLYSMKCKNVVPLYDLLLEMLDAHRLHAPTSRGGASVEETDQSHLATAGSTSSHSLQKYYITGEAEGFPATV
Briefly: ERα–SRC-3 coactivator interaction inhibitors, confirmation, orthogonal assay, biochemical, ELISA, streptavidin-HRP readout (AID 1079).

Calls of active or inactive are those of the source.

Chain of Heat shock 70 kDa protein 1A (P0DMV8 whole entry): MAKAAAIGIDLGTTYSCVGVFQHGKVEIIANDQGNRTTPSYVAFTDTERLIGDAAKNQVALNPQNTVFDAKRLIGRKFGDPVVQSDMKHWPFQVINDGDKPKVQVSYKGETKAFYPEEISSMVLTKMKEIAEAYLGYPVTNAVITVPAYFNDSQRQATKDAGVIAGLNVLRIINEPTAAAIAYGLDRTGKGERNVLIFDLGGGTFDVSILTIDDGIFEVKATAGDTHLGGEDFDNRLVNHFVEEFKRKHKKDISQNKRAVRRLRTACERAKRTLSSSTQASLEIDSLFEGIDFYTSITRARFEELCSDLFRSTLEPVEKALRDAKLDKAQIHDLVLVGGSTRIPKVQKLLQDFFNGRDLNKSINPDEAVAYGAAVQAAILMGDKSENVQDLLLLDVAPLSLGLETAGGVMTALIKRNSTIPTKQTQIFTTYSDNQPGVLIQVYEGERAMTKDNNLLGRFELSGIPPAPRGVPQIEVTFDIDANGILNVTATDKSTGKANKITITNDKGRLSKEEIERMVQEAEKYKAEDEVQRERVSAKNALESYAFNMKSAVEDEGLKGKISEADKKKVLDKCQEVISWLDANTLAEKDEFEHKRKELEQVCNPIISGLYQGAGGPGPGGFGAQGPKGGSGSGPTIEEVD
Chain of Glyceraldehyde-3-phosphate dehydrogenase (P04406 whole entry): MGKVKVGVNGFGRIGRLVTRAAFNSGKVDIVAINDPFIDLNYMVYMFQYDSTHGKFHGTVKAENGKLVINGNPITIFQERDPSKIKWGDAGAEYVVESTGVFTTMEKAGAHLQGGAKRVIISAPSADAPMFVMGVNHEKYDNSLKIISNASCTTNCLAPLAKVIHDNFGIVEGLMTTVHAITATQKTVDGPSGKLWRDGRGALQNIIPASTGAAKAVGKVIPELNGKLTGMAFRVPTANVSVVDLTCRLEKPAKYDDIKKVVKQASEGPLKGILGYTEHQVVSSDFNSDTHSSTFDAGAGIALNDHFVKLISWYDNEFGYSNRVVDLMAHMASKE
Chain of Potassium voltage-gated channel subfamily KQT member 2 (O88943 whole entry): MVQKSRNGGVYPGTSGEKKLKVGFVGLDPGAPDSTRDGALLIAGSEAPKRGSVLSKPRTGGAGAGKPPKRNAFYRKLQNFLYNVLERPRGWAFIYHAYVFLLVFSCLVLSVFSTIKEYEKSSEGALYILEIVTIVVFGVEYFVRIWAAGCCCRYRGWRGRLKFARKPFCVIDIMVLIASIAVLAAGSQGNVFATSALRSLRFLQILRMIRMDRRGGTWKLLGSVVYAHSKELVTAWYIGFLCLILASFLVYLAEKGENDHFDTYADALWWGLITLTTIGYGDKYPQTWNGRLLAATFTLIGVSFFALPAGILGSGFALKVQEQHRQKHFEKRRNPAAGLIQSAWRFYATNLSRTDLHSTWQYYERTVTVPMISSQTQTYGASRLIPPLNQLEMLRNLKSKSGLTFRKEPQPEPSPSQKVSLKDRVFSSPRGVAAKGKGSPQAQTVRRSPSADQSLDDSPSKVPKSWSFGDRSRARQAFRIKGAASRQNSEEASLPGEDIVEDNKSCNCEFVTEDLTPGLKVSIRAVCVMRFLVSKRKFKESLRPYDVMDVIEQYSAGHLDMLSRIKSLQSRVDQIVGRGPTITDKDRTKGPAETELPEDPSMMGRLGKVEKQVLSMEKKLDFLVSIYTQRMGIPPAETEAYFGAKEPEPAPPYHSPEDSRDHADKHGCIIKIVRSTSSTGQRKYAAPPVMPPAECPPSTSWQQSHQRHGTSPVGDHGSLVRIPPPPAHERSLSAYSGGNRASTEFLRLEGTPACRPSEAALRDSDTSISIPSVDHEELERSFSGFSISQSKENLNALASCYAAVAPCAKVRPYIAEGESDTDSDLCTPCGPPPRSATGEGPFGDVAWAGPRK
Chain of Heat shock cognate 71 kDa protein (P11142 whole entry): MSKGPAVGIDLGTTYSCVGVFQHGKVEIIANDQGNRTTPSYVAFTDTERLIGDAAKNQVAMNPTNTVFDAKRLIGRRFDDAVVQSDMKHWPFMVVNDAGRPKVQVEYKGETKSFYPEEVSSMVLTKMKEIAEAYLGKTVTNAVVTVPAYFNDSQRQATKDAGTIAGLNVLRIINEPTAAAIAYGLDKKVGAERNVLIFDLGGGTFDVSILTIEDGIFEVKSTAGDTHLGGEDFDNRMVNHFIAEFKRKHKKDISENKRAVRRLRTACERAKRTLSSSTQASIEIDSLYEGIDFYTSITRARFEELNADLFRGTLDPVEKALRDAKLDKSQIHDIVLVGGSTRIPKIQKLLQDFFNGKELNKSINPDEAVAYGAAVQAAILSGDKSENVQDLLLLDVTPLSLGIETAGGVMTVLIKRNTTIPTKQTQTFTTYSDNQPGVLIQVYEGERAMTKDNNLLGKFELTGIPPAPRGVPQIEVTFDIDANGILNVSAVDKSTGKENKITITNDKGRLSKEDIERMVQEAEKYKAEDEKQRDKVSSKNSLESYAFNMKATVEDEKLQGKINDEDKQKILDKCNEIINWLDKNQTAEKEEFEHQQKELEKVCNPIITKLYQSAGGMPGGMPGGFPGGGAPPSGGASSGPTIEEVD

With `COC(=O)c1ccccc1OC(=O)c1ccc2c(c1)C1C=CCC1C(C(=O)O)N2` (configuration not stated), the half-inhibitory concentration (IC50) in assay [1] was 93.6 µM (active); in assay [2], 28 µM (active); in assay [3], 115 µM (active); in [4] it was 2.8 µM (active); in assay [5], 17 µM (active).

On to `COc1ccc(C2NCc3ccc4c(c3-n3cccc32)OCO4)cc1O` (configuration not stated), for which the EC50 was < 100 nM (active) in [6]; < 100 nM (active) in assay [7]; 5.44 µM (active) in the assay “cells”; > 12 µM (not active) in assay [8]; 2.6 µM (active) in assay [9].

Turning to `O=C(Nc1ccc(Br)nc1)c1ccc(F)c(F)c1`, the EC50 in assay [10] is 3.72 µM (active).

`O=C(CCCCCn1c(=S)[nH]c2ccccc2c1=O)N1CCN(c2cccc(Cl)c2)CC1`: the IC50 at Estrogen receptor is recorded as 350 nM (not active).

(Values after ChEMBL document CHEMBL1201862, “PubChem BioAssay data set” (2004).)
